Test results reported in patent publication US8383162B2 (priority 2006, dated 2013).
“Also recorded” adds a separate entry of the source.

Columns and labels:
rats [1] = details: rat, in vivo
[2] = tested on: nerve ending spinal cord of rats; type: cell-based
[3] = tested on: central nervous system cells; assay: Acute toxicity and electrical excitability in central nervous system cells
[4] = tested on: N-type calcium channels on neuronal pre-synaptic membrane; type: cell-based
synaptosomes [5] = type: cell-based
N-type calcium channels = target: T1, N-type calcium channels (Homo sapiens, UniProt Q00975); type: cell-based, mammalian
T1 construct: expressed in transfected cells; host or cells: HEK cells
T1 sequence (Q02641 whole entry): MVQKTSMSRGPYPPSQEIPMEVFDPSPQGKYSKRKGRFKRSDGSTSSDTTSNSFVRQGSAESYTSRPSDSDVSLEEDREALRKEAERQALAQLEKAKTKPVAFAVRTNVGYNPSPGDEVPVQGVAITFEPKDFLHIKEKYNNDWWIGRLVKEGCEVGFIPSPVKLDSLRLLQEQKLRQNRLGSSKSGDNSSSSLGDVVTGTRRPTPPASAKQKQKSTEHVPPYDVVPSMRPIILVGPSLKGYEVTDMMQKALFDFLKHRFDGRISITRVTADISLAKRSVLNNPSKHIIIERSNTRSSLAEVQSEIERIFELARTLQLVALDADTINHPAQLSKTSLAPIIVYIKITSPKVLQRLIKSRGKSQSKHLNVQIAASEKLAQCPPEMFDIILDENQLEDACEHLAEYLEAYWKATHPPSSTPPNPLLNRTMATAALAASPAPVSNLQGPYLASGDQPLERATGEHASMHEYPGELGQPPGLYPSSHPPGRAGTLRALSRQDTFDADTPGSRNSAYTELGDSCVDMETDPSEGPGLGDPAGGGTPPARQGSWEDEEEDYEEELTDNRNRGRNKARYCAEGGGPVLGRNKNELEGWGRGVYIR
T1 sequence (P54289 957-1103, further chain): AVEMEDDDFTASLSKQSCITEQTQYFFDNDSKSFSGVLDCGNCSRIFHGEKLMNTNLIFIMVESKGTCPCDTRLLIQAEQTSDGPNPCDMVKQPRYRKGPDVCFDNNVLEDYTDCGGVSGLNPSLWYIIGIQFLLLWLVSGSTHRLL
T1 sequence (P54289 25-956, further chain): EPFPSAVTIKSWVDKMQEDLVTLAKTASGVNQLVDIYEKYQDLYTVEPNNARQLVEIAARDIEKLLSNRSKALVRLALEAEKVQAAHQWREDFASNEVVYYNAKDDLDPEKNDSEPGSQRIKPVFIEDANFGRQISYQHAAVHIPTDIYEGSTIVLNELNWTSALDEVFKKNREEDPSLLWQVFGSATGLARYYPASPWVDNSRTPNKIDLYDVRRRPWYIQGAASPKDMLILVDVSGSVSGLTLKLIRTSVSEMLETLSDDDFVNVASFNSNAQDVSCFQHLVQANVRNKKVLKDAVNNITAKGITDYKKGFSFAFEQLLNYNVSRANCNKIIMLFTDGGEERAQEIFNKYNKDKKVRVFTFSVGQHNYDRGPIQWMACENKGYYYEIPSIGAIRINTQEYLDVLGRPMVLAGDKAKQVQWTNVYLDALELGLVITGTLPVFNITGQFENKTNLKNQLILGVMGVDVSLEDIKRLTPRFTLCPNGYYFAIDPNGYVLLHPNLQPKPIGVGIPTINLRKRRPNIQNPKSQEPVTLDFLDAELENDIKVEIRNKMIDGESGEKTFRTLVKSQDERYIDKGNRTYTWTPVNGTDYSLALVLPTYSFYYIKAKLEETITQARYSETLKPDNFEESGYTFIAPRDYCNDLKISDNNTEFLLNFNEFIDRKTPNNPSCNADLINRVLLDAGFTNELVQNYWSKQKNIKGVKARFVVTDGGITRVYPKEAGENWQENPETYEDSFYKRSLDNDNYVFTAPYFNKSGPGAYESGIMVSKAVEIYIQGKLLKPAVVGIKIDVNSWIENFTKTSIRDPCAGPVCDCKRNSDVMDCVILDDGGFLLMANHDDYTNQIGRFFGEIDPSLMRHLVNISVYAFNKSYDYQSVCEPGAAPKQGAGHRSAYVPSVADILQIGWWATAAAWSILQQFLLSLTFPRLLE
T1 sequence (Q00975 whole entry): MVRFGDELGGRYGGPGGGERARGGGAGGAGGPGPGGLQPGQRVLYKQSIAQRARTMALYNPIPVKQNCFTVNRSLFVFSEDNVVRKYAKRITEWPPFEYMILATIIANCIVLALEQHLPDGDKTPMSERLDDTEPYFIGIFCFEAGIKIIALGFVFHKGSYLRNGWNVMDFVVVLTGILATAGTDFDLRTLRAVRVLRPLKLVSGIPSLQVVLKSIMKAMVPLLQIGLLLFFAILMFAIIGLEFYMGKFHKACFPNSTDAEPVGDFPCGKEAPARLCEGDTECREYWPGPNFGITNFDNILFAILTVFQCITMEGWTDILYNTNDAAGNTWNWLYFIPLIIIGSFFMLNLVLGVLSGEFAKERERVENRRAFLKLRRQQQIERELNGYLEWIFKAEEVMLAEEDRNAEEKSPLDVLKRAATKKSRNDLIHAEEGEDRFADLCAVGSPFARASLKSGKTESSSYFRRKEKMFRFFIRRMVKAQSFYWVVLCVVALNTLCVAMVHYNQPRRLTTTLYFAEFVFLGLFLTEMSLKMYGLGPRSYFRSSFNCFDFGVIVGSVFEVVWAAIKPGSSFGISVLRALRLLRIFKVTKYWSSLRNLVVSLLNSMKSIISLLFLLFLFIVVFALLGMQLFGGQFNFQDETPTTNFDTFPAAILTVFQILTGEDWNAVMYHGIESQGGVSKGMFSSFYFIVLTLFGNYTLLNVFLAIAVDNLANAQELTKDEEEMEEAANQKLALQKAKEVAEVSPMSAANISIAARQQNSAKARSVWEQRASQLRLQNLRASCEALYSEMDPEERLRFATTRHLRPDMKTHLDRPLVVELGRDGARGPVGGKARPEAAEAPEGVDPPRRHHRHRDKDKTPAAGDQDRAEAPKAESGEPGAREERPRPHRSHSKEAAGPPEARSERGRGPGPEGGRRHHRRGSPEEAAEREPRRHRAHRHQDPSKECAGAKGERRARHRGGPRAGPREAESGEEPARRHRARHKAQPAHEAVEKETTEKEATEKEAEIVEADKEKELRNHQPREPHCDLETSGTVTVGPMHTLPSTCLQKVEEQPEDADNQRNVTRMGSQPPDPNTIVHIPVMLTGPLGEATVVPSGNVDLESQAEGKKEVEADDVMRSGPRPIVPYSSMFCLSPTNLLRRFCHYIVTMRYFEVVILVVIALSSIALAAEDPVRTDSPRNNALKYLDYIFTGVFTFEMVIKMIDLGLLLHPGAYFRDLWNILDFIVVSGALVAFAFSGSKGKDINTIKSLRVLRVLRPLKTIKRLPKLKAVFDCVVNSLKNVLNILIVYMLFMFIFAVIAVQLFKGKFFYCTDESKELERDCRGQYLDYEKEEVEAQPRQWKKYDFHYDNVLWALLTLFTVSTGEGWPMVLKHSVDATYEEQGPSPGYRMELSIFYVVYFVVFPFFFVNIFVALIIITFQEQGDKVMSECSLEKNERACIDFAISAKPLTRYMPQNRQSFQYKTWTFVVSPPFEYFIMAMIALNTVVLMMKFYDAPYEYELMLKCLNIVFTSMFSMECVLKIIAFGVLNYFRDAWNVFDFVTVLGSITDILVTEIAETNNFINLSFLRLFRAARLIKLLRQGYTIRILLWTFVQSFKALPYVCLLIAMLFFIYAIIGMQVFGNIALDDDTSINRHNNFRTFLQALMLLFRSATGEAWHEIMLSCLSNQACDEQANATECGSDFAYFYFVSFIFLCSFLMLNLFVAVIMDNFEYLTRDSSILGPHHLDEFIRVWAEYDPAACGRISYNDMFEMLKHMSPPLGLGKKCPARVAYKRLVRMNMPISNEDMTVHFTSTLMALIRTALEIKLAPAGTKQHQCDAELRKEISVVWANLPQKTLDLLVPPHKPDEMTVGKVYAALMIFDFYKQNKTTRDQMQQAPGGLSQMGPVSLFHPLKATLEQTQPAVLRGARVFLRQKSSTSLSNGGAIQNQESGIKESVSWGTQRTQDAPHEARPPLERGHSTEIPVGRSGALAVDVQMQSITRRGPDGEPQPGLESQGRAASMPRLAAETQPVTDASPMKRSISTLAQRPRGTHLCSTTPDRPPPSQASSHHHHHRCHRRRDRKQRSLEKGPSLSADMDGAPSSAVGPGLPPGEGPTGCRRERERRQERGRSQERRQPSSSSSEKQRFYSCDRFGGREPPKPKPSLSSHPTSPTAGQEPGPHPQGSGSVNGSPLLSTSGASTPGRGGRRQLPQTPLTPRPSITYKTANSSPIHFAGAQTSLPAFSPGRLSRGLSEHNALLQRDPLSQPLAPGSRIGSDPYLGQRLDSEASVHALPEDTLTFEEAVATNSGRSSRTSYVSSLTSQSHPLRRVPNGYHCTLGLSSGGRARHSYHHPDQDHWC

rats [6] = details: rat, in vivo; remark: listed apart in the source
rats [7] = details: rat, in vivo; remark: listed apart in the source
[8] = Acute, chronic and neurogenic pain after intrathecal bolus pretreatment; type: in vivo; details: pretreatment by intrathecal bolus injection
Description: In the heat pain model the antinociceptive effect of the Phα1B lasts 24 h.

rats [9] = details: rat, in vivo; remark: listed apart in the source
[10] = tested on: HVA calcium channels subtypes (L, N, P/Q and R); type: cell-based, mammalian
synaptosomes [11] = type: cell-based; remark: listed apart in the source

CN1CC[C@]23c4c5ccc(O)c4O[C@H]2[C@@H](O)C=C[C@H]3[C@H]1C5 [morphine, reference compound]
duration of significant effect on hot plate (rats [1]): up to 5 hours

Phα1B (ACIPRGEICTDDCECCGCDNQCYCPPGSSLGIFKCSCAHANKYFCNRKKEKCKA)
efficacy to inhibit capsaicin-induced release of glutamate [2]: higher efficacy | effect on electrical excitability of the neurons [3]: does not affect | acute toxicity to the cells tested ([3]; central nervous system cells): not acutely toxic | duration of antinociceptive effect in the heat pain model (rats [1]): 24 h | efficacy against pain induced on the hot plate test (rats [1]): higher efficacy than conotoxins | latency period on hot plate, time points with significant increase (rats [1]): increasing significantly the latency period to 3, 4, 5, 6 and 24 hours | effect on capsaicin-induced increase of [Ca2+]i [4]: inhibition | effect on uptake of 45Ca2+ (calcium influx on depolarized terminal) (synaptosomes [5]): blocks | reversibility of N-type calcium channel inhibition (N-type calcium channels): reversibly inhibited | IC50 (N-type calcium channels; read-out: IC50 for inhibition of N-type calcium channels): 0.122 µM | ED50 for inhibiting the inflammatory phase of formalin test, comparison (rats [6]): lower ED50 values | antinociceptive effect on the inflammatory phase of formalin test (rats [6]): potent and longer antinociceptive effect | IC50 for the antinociceptive effect (rats [7]): 50.2 pmol | antinociceptive effect (pain inhibition), in words (rats [7]): reduces the pain in rats; also recorded: more effective to inhibit pain; also recorded: higher than that induced by morphine | dose at which maximal inhibition was obtained (rats [7]): 87.2 pmol | duration of the antinociceptive effect (rats [7]): up to 24 hours | effect on acute, chronic and neurogenic pain [8]: blocks the acute, cronic and neurogenic pain | factor by which antinociceptive doses are lower than doses associated with side-effects (DT50) (rats [9]): around 15 times | block of HVA calcium channel subtypes (L, N, P/Q and R) [10]: reversible block of all four HVA calcium channels subtypes | selectivity among HVA Ca2+ channels [10]: most potent and effective on N-type; also recorded: measurable preference for N-type channels | effect on stimulated release of glutamate (synaptosomes [11]): blocks; also recorded: blocked the release of glutamate
